Data as given in patent EP4273147A1, “SUBSTITUTED SPIROLACTAMS, SALTS THEREOF AND THEIR USE AS HERBICIDALLY ACTIVE SUBSTANCES” (Bayer Aktiengesellschaft, priority 2022, dated 2023).

Tests used:
GLXMA [1] = assay: Pre-emergence effects on crop plants (Table D4); type: in vivo, Glycine max; settings: crop plant, visual grading after ca. 3 weeks
From the text: Seeds of mono- and dicotyledonous weed plants and crop plants were sown, in plastic or organic planting pots, in sandy loam and covered with soil. The compounds according to the invention, formulated in the form of wettable powders (WP) or as emulsifiable concentrates (EC), were applied to the surface of the covering soil as aqueous suspension or emulsion, with the addition of 0.5% of an additive, at an application rate of 600 1 of water/ha (converted).
Following treatment, the pots were placed in a greenhouse and kept under optimum growth conditions for the test plants.

ZEAMX [2] = assay: Pre-emergence effects on crop plants (Table D1); type: in vivo, Zea mays; settings: crop plant, visual grading after ca. 3 weeks
ECHCG [3] = assay: Herbicidal post-emergence action (Table B3); type: in vivo, Echinochloa crus-galli; settings: application rate 1280 g/ha, rated visually after about 3 weeks
Procedure: (§1) Seeds of mono- and dicotyledonous weed plants were placed in plastic pots in sandy loam soil (doubly sown with in each case one species of mono- or dicotyledonous weed plants per pot), covered with soil and cultivated in a greenhouse under controlled growth conditions. 2 to 3 weeks after sowing, the test plants were treated at the one-leaf stage. […] After the test plants had been kept in the greenhouse under optimum growth conditions for about 3 weeks, the activity of the preparations was rated visually in comparison to untreated controls. For example, 100% activity = the plants have died, 0% activity = like control plants.

TRZAS [4] = assay: Post-emergence effects on crop plants (Table F2); type: in vivo, Triticum aestivum; settings: application rate 320 g/ha, crop plant TRZAS
From the text: (§2) 2 to 3 weeks after sowing, the test plants were sprayed in the single-leaf stage.

BRSNW [5] = assay: Post-emergence effects on crop plants (Table F5); type: in vivo, Brassica napus; settings: application rate 320 g/ha, crop plant BRSNW
From the text: as §2

LOLRI = assay: Herbicidal pre-emergence action (Table A3); type: in vivo, Lolium rigidum; settings: visual grading after ca. 3 weeks
From the text: (§3) Seeds of mono- and dicotyledonous weed plants were sown in plastic pots (double sowings with one species of mono- and one species of dicotyledonous weed plants per pot), in sandy loam, and covered with soil.

SETVI [6] = assay: Herbicidal pre-emergence action (Table A5); type: in vivo, Setaria viridis; settings: visual grading after ca. 3 weeks
From the text: as §3

BRSNW [7] = assay: Pre-emergence effects on crop plants (Table D5); type: in vivo, Brassica napus; settings: crop plant, visual grading after ca. 3 weeks
POAAN [8] = assay: Herbicidal post-emergence action (Table B7); type: in vivo, Poa annua; settings: application rate 1280 g/ha
Procedure: as §1

MATIN = assay: Herbicidal pre-emergence action (Table A4); type: in vivo, Matricaria inodora; settings: application rate 1280 g/ha; visual grading after ca. 3 weeks
From the text: as §3

ALOMY [9] = assay: Herbicidal pre-emergence action, section C (Table C2); type: in vivo, Alopecurus myosuroides; settings: application rate 320 g/ha; visual grading after ca. 3 weeks
ORYZA [10] = assay: Pre-emergence effects on crop plants (Table D3); settings: crop plant; application rate 80 g/ha; visual grading after ca. 3 weeks
ORYZA [11] = assay: Post-emergence effects on crop plants (Table F3); type: in vivo, Oryza sativa; settings: application rate 320 g/ha, crop plant ORYZA
From the text: as §2

ZEAMX [12] = assay: Post-emergence effects on crop plants (Table F1); type: in vivo, Zea mays; settings: application rate 320 g/ha, crop plant ZEAMX
From the text: as §2

ECHCG [13] = assay: Herbicidal pre-emergence action (Table A2); type: in vivo, Echinochloa crus-galli; settings: visual grading after ca. 3 weeks
From the text: as §3

ECHCG [14] = assay: Herbicidal pre-emergence action, section C (Table C6); type: in vivo, Echinochloa crus-galli; settings: application rate 320 g/ha; visual grading after ca. 3 weeks
ALOMY [15] = assay: Herbicidal pre-emergence action (Table A9); type: in vivo, Alopecurus myosuroides; settings: application rate 1280 g/ha; visual grading after ca. 3 weeks
From the text: as §3

POAAN [16] = assay: Herbicidal pre-emergence action (Table A7); type: in vivo, Poa annua; settings: visual grading after ca. 3 weeks
From the text: as §3

ECHCG [17] = assay: Herbicidal post-emergence action, section E (Table E5); type: in vivo, Echinochloa crus-galli; settings: application rate 320 g/ha; assessed visually after ca. 3 weeks
From the text: as §2

SETVI [18] = assay: Herbicidal pre-emergence action, section C (Table C10); type: in vivo, Setaria viridis; settings: visual grading after ca. 3 weeks
KCHSC = assay: Herbicidal pre-emergence action (Table A10); type: in vivo, Kochia scoparia; settings: visual grading after ca. 3 weeks
From the text: as §3

STEME = assay: Herbicidal pre-emergence action (Table A6); type: in vivo, Stellaria media; settings: visual grading after ca. 3 weeks
From the text: as §3

TRZAS [19] = assay: Pre-emergence effects on crop plants (Table D2); type: in vivo, Triticum aestivum; settings: crop plant, visual grading after ca. 3 weeks
GLXMA [20] = assay: Post-emergence effects on crop plants (Table F4); type: in vivo, Glycine max; settings: crop plant GLXMA
From the text: as §2

DIGSA [21] = assay: Herbicidal pre-emergence action (Table A12); type: in vivo, Digitaria sanguinalis; settings: visual grading after ca. 3 weeks
From the text: as §3

SETVI [22] = assay: Herbicidal post-emergence action (Table B8); type: in vivo, Setaria viridis; settings: application rate 320 g/ha
Procedure: as §1

VERPE = assay: Herbicidal pre-emergence action (Table A11); type: in vivo, Veronica persica; settings: application rate 1280 g/ha; visual grading after ca. 3 weeks
From the text: as §3

VIOTR = assay: Herbicidal pre-emergence action, section C (Table C12); type: in vivo, Viola tricolor; settings: application rate 320 g/ha; visual grading after ca. 3 weeks
From the text: Seeds of mono- and dicotyledonous weed plants and crop plants were sown, in plastic or organic planting pots, in sandy loam and covered with soil. The compounds according to the invention, formulated in the form of wettable powders (WP) or as emulsifiable concentrates (EC), were applied to the surface of the covering soil as aqueous suspension or emulsion, with the addition of 0.5% of an additive, at an application rate of 600 1 of water/ha (converted). Following treatment, the pots were placed in a greenhouse and kept under optimum growth conditions for the test plants.

DIGSA [23] = assay: Herbicidal pre-emergence action, section C (Table C5); type: in vivo, Digitaria sanguinalis; settings: application rate 320 g/ha; visual grading after ca. 3 weeks

pre-emergence activity against GLXMA (GLXMA [1]; application rate 320 g/ha) [%] | pre-emergence activity against BRSNW (BRSNW [7]; application rate 80 g/ha) [%] | Structure (SMILES) | post-emergence activity against TRZAS (TRZAS [4]) [%] | post-emergence activity against BRSNW (BRSNW [5]) [%] | pre-emergence activity against LOLRI (LOLRI; application rate 320 g/ha) [%] | pre-emergence activity against SETVI (SETVI [6]; application rate 320 g/ha) [%] | pre-emergence activity against MATIN (MATIN) [%] | pre-emergence activity against ALOMY (ALOMY [9]) [%] | post-emergence activity against ORYZA (ORYZA [11]) [%] | post-emergence activity against ZEAMX (ZEAMX [12]) [%] | pre-emergence activity against ECHCG (ECHCG [13]; application rate 320 g/ha) [%] | pre-emergence activity against ECHCG (ECHCG [14]) [%] | pre-emergence activity against ALOMY (ALOMY [15]) [%] | pre-emergence activity against SETVI (SETVI [18]; application rate 320 g/ha) [%] | pre-emergence activity against STEME (STEME; application rate 1280 g/ha) [%] | pre-emergence activity against POAAN (POAAN [16]; application rate 1280 g/ha) [%] | also measured
0 |  | COc1ccccc1CN1CCCC2(CCCN(Cc3ccccc3F)C2=O)C1=O (racemic) [I-061] | 0 | 0 | 100 | 100 | 90 | 80 | 0 | 0 | 100 | 100 | 90 | 100 |  |  | pre-emergence activity against ZEAMX (ZEAMX [2]; application rate 80 g/ha): 0%; post-emergence activity against ECHCG (ECHCG [3]): 90%; pre-emergence activity against BRSNW (BRSNW [7]; application rate 320 g/ha): 0%; post-emergence activity against POAAN (POAAN [8]): 90%; pre-emergence activity against ORYZA (ORYZA [10]): 0%; pre-emergence activity against POAAN (POAAN [16]; application rate 320 g/ha): 100%; post-emergence activity against ECHCG (ECHCG [17]): 80%
 | 20 | O=C1N(Cc2ccsc2)CCCC12CCCN(Cc1cccc(F)c1F)C2=O (racemic) [I-072] | 0 | 0 | 100 |  | 90 | 80 | 0 | 0 | 100 | 100 |  |  | 90 | 90 | pre-emergence activity against GLXMA (GLXMA [1]; application rate 80 g/ha): 0%; pre-emergence activity against SETVI (SETVI [6]; application rate 1280 g/ha): 90%; pre-emergence activity against KCHSC (KCHSC; application rate 320 g/ha): 90%; pre-emergence activity against TRZAS (TRZAS [19]; application rate 80 g/ha): 10%; post-emergence activity against GLXMA (GLXMA [20]; application rate 320 g/ha): 0%; pre-emergence activity against SETVI (SETVI [18]; application rate 80 g/ha): 100%
 |  | O=C1N(Cc2ccc(F)c(F)c2F)CCCC12CCCN(Cc1ccc(F)c(F)c1F)C2=O (racemic) [I-189, 2,8-bis(2,3,4-trifluorophenylmethyl)-2,8-diazaspiro[5.5]undecane-1,7-dione] |  |  |  | 100 | 90 |  |  |  | 100 |  | 100 |  | 90 |  | pest or weed control at 1280 g/ha (ECHCG [3]; Echinochloa crus-galli, post-emergence, 504 h, read-out: post-emergence activity against ECHCG): 90%; pest or weed control at 1280 g/ha (LOLRI; Lolium rigidum, pre-emergence, 504 h, application rate 1280 g/ha, read-out: pre-emergence activity against LOLRI): 100%; pre-emergence activity against KCHSC (KCHSC; application rate 1280 g/ha): 100%; pre-emergence activity against DIGSA (DIGSA [21]; application rate 320 g/ha): 90%; post-emergence activity against SETVI (SETVI [22]): 90%; pest or weed control at 320 g/ha (POAAN [16]; Poa annua, pre-emergence, 504 h, application rate 320 g/ha, read-out: pre-emergence activity against POAAN): 100%
0 | 0 | CC(c1c(F)cccc1F)N1CCCC2(CCCN(C(C)c3c(F)cccc3F)C2=O)C1=O (stereo not shown) [I-074] | 0 | 0 |  | 90 |  | 80 | 0 | 0 |  |  | 90 | 90 |  | 100 | pre-emergence activity against ZEAMX (ZEAMX [2]; application rate 320 g/ha): 0%; pre-emergence activity against LOLRI (LOLRI; application rate 1280 g/ha): 90%; pre-emergence activity against VERPE (VERPE): 90%; pre-emergence activity against ECHCG (ECHCG [13]; application rate 1280 g/ha): 90%; pre-emergence activity against VIOTR (VIOTR): 90%; pre-emergence activity against DIGSA (DIGSA [21]; application rate 1280 g/ha): 90%; pre-emergence activity against STEME (STEME; application rate 320 g/ha): 90%; pre-emergence activity against TRZAS (TRZAS [19]; application rate 320 g/ha): 20%; post-emergence activity against GLXMA (GLXMA [20]; application rate 80 g/ha): 0%; pre-emergence activity against DIGSA (DIGSA [23]): 100%
